Results on 6 molecules are retold here after paper PMC3380929 (PLoS Pathogens, 2012).

Series [1] has as its target PfAMA1 from strain CAMP. Description: SPR binding to immobilized recombinant PfAMA1 CAMP. Details: species or system P. falciparum (strain CAMP). As to conditions: SPR Biacore 2000, AMA1 immobilized on CM5, 25°C, PBS and 0.005% Tween 20, steady-state model (Req extrapolated), mean ± SD, at least three independent experiments, read-out: Apparent equilibrium dissociation constant KD. An excerpt:
(§1) (ii) P. pastoris expression: Synthetic genes were optimized for PfAMA1 coding of residues 97–442, from strains 3D7 (Genbank accession number U33274), CAMP (accession number M34552) and HB3 (accession number U33277). Potential N-glycosylation sites were mutated and genes were cloned EcoRI-KpnI in the pPicZalpha A vector (Invitrogen), resulting in an 11-residues sequence extension followed by myc-epitope and hexa-His tags at the C-terminus), expressed in P. pastoris, and purified as described. Yield after purification was approximately 20 mg per L of culture. PfAMA1 FVO (residues 25–545, no tags, accession number AJ277646) was produced as described before. The DiCo3 protein was modified compared to the published protein [23]; it includes the PfAMA1 FVO prodomain (amino acids 25–96) and one additional mutation to minimize proteolytic cleavage Lys376–>Arg (B. Faber, unpublished results). The PfAMA1 3D7mut (Ile225–>Asn, residues 25–545, no tags) mutant was generated by site-directed mutagenesis (Genscript) and produced in P. pastoris in a similar fashion to the native protein [29].
(§2) A 39-residue peptide corresponding to residues 2021 to 2059 of PfRON2 (PfRON2sp1) was synthesized by Kinexus (Vancouver, Canada) and disulfide cyclized. […]

The test system of series [2] is PfAMA1 from 3D7, CAMP, FVO and HB3. Description: SPR binding compared across PfAMA1 strains. The arrangement: species or system P. falciparum.
Text: as §1
A 39-residue peptide corresponding to residues 2021 to 2059 of PfRON2 (PfRON2sp1) was synthesized by Kinexus (Vancouver, Canada) and disulfide cyclized. Lyophilized PfRON2sp1 was solubilized in 100% DMSO and subsequently diluted in HBS (20 mM HEPES pH 7.5, 150 mM NaCl) for use in co-crystallization and functional studies. Peptides PfRON2sp2 (residues 2027 to 2054) and R1 were synthesized by PolyPeptide (Strasbourg, France) and solubilized in 3.5% DMSO for subsequent use.
SPR measurements were made with a Biacore 2000 instrument (Biacore AB). AMA1 proteins diluted in 10 mM sodium acetate pH 4.5 for 3D7, CAMP, HB3 and FVO strains, or pH 4.0 for 3D7mut and Dico3, were covalently immobilized by an amine-coupling procedure on CM5 sensor chips (GE Healthcare). The reference flow cell was prepared by the same procedure in absence of protein. […]

The target in series [3] is PfAMA1 CAMP (residues 97-442), P. pastoris expression (Plasmodium falciparum (strain CAMP)) (UniProt P50489). The series is described as follows: SPR; Biacore 2000; PfAMA1 (3D7, CAMP, HB3, FVO) amine-coupled on CM5 at pH 4.5; PfRON2sp peptides injected; 25°C, PBS with 0.005% Tween 20, 5 µL/min; apparent KD from a steady-state model, Req extrapolated.
Series [4] addresses PfAMA1 FVO (residues 25-545, no tags) (Plasmodium falciparum (strain FVO)). The series is described as above.
Series [5] deals with PfAMA1 HB3 (residues 97-442), P. pastoris expression (Plasmodium falciparum (strain HB3)). The series is described as above.
The target in series [6] is PfAMA1 3D7 (residues 97-442), P. pastoris expression (Plasmodium falciparum (strain 3D7)) (UniProt Q7KQK5). The series is described as above.
Series [7] deals with P. falciparum 3D7 or HB3. Description: Red blood cell invasion assay, cross-strain (3D7 and HB3). The series is classed as cell-based, P. falciparum (strains 3D7 and HB3). As to conditions: for Cross-strain reactivity of invasion inhibition: 3D7 or HB3, peptides 0.2 to 20 µM, 16 hours post-invasion, N = 3; for Inhibition of erythrocyte invasion: P. falciparum merozoites, in words. On the procedure:
(§3) The P. falciparum cell cultures and the invasion assays were performed as described previously. Briefly, highly synchronized P. falciparum 3D7 and HB3 schizonts (1.5% hematocrit, 1.5% parasitemia) were incubated with R1 or PfRON2sp1 peptides. Blood smears were collected 16 hours post-invasion and used for ring-stage parasites counting. The results presented are representative of three independent experiments, each performed in triplicate.

Series [8] addresses PfAMA1 from strain 3D7 (Plasmodium falciparum, UniProt Q7KQK5). The series is described as follows: SPR binding to immobilized recombinant PfAMA1 3D7. The arrangement: species or system P. falciparum (strain 3D7). Conditions: ratio PfRON2sp1 vs PfRON2sp2, SPR.
Text: as §1, §2

For series [9], the system named is P. falciparum 3D7. The series is described as follows: Red blood cell invasion assay, P. falciparum 3D7. The series is classed as cell-based, P. falciparum (strain 3D7). As to conditions: peptides 0.2 to 20 µM, parasitemia of IRBC 16 hours post-invasion, N = 3. On the procedure: as §3
Series [10] concerns the target PfAMA1 3D7 (Plasmodium falciparum, UniProt Q7KQK5). The series is described as follows: Isothermal titration calorimetry of R1 with PfAMA1 3D7. The series is classed as binding, P. falciparum (strain 3D7). As to conditions: ITC200, PfAMA1 3D7 (P. pastoris) 0.6 µM, R1 55 µM, PBS, 25°C, 1∶1 interaction model. As for the experimental part: ITC measurements were made using a ITC200 calorimeter (MicroCal). PfAMA1 3D7 (P. pastoris) and peptide R1 were diluted in PBS to final concentrations of 0.6 µM and 55 µM, respectively. PfAMA1 3D7 (initial volume 200 µL) was titrated at 25°C by consecutive injections of the peptide R1 (2 µL aliquots at 3 min intervals). Raw data were normalized and corrected for the heat of dilution of R1 in PBS. Binding stoichiometry was determined by fitting the final data to a 1∶1 interaction model using the Origin7 software (OriginLab).

Series [11] concerns the molecule itself. Description: crystal structure.

Entries after “also recorded” stand apart in the source; their conditions may differ. Positions of bridges follow the written chain, without caps; N, C: chain ends. Residues, ends and D or L forms follow the SMILES beside them.

`CC[C@H](C)[C@H](NC(=O)[C@H](CC(=O)O)NC(=O)[C@@H](N)CCCCN)C(=O)NCC(=O)N[C@@H](C)C(=O)NCC(=O)N1CCC[C@H]1C(=O)N[C@H](C(=O)N[C@@H](C)C(=O)N[C@@H](CO)C(=O)N[C@H]1CSSC[C@@H](C(=O)N[C@@H](CC(C)C)C(=O)N[C@@H](CC(N)=O)C(=O)N[C@@H](CO)C(=O)N[C@H](C(=O)N[C@H](C(=O)N[C@@H](CC(N)=O)C(=O)O)C(C)C)C(C)C)NC(=O)[C@H]([C@@H](C)CC)NC(=O)[C@H](CCC(N)=O)NC(=O)[C@H](CCC(N)=O)NC(=O)[C@@H]2CCCN2C(=O)[C@@H]2CCCN2C(=O)[C@H](CO)NC(=O)[C@H](CCSC)NC(=O)[C@H](CCCNC(=N)N)NC(=O)[C@H]([C@@H](C)O)NC(=O)[C@H]([C@@H](C)O)NC(=O)[C@H](Cc2ccccc2)NC1=O)C(C)C` [PfRON2sp2] (H-KDIGAGPVASCFTTRMSPPQQICLNSVVN-OH; disulfide 11-23; N-terminus and C-terminus assumed): the Kd in series [1] was 165 ± 42 nM. The “Difference in affinity of PfAMA1 3D7 and CAMP homologs” value in series [2] (3D7 vs CAMP, SPR) is reported as “no significant difference in the affinity”.

On to “PfRON2sp2 (PfRON2 residues 2027-2055) (peptide)”, for which the Kd in series [3] is 165 nM; in [4], 80 nM; in [5] it was 680 nM; in [6] it was 520 nM.

Turning to `CC[C@H](C)[C@H](NC(=O)[C@H](CC(=O)O)NC(=O)[C@H](CCCCN)NC(=O)[C@H](C)NC(=O)[C@H](CCC(N)=O)NC(=O)[C@H](CCC(N)=O)NC(=O)[C@@H](NC(=O)[C@@H](NC(=O)[C@@H](N)CC(=O)O)[C@@H](C)CC)[C@@H](C)O)C(=O)NCC(=O)N[C@@H](C)C(=O)NCC(=O)N1CCC[C@H]1C(=O)N[C@H](C(=O)N[C@@H](C)C(=O)N[C@@H](CO)C(=O)N[C@H]1CSSC[C@@H](C(=O)N[C@@H](CC(C)C)C(=O)N[C@@H](CC(N)=O)C(=O)N[C@@H](CO)C(=O)N[C@H](C(=O)N[C@H](C(=O)N[C@@H](CC(N)=O)C(=O)N[C@H](C(=O)N[C@@H](C)C(=O)N[C@@H](CC(C)C)C(=O)N[C@@H](CO)C(=O)O)[C@@H](C)O)C(C)C)C(C)C)NC(=O)[C@H]([C@@H](C)CC)NC(=O)[C@H](CCC(N)=O)NC(=O)[C@H](CCC(N)=O)NC(=O)[C@@H]2CCCN2C(=O)[C@@H]2CCCN2C(=O)[C@H](CO)NC(=O)[C@H](CCSC)NC(=O)[C@H](CCCNC(=N)N)NC(=O)[C@H]([C@@H](C)O)NC(=O)[C@H]([C@@H](C)O)NC(=O)[C@H](Cc2ccccc2)NC1=O)C(C)C` [PfRON2sp1], in series [1], the Kd was 14.6 ± 3.8 nM. Further, in [7], the “Cross-strain reactivity of invasion inhibition” value is given as “cross-strain inhibition of invasion; also recorded: cross-strain reactivity; also recorded: not strain specific” and the “Inhibition of erythrocyte invasion” value is on record as “very efficient at inhibiting invasion”. In addition, in series [7] (listed as PfRON2 peptide), the “Cross-strain reactivity of invasion inhibition” value is on record as “strong inhibitory potency is not affected by AMA1 polymorphisms” and the “Inhibition of erythrocyte invasion” value is on record as “inhibits erythrocyte invasion”. Further, the “Affinity of PfAMA1 from 3D7 for PfRON2sp1 higher than for PfRON2sp2” value in series [8] was found to be 25 fold. Besides, the “Affinity for PfAMA1 relative to R1 peptide” value in [2] (all the PfAMA1 proteins tested, SPR, compared with R1) is given as “higher affinity than for R1 peptide”. Further, the “Affinity to PfAMA1” value in series [2] (in words) was “very high affinity to PfAMA1”. Also, the “Inhibition of red blood cell invasion relative to R1 peptide” value in series [9] is given as “higher capacity to inhibit red cell invasion; also recorded: higher inhibitory efficiency”.

In series [10], `CC[C@H](C)[C@H](NC(=O)[C@H](Cc1cnc[nH]1)NC(=O)[C@H](CCSC)NC(=O)[C@H](CCCNC(=N)N)NC(=O)[C@H](CO)NC(=O)CNC(=O)[C@H](Cc1ccccc1)NC(=O)[C@H](CCCCN)NC(=O)[C@H](CO)NC(=O)[C@H](Cc1ccccc1)NC(=O)[C@H](CC(C)C)NC(=O)[C@@H]1CCCN1C(=O)[C@H](CC(C)C)NC(=O)[C@H](Cc1ccccc1)NC(=O)[C@H](CCC(=O)O)NC(=O)[C@H](C)NC(=O)[C@H](Cc1ccccc1)NC(=O)[C@@H](N)C(C)C)C(=O)N[C@@H](CC(C)C)C(=O)N[C@@H](CCCCN)C(=O)O` [R1] (H-VFAEFLPLFSKFGSRMHILK-OH) registered a Kd of 145 nM.

For “PfRON2sp1 (PfRON2 residues 2021-2059) (peptide)”, the Kd in series [3] is 14.6 nM; in [4], 9.2 nM; in series [5], 18.3 nM; in series [6], 20.3 nM.

For the molecule VFAEFLPLFSKFGSRMHILK (source: synthetic peptide (PolyPeptide)) [invasion-inhibitory peptide R1], the binding result in series [11] was “binds”.
